Experimental findings from US8664397B2, “Pyrrolopyridine-2-carboxylic acid amide derivative useful as inhibitor of glycogen phosphorylase” (Prosidion Limited, priority 2004, dated 2014) are described below.

The conditions of data set [1]: thermogravimetric method, nitrogen flow, 5° C./min heating rate. Here is the method: Thermogravimetric analysis was performed as follows: A sample of the material (ca. 4-5 mg) was heated in a platinum vessel using slow inert gas (nitrogen) flow with 5° C./min heating rate using Derivatograph C instrument.
Thermal stability data on the product of Example 1 were obtained by the thermogravimetric method described above.

For data set [2], the target named is T1, Rabbit muscle glycogen phosphorylase a (Oryctolagus cuniculus, UniProt P00489).
T1 construct: purchased Sigma P1261; host or cells: rabbit muscle
T1 sequence (P00489 2-843 limits assumed): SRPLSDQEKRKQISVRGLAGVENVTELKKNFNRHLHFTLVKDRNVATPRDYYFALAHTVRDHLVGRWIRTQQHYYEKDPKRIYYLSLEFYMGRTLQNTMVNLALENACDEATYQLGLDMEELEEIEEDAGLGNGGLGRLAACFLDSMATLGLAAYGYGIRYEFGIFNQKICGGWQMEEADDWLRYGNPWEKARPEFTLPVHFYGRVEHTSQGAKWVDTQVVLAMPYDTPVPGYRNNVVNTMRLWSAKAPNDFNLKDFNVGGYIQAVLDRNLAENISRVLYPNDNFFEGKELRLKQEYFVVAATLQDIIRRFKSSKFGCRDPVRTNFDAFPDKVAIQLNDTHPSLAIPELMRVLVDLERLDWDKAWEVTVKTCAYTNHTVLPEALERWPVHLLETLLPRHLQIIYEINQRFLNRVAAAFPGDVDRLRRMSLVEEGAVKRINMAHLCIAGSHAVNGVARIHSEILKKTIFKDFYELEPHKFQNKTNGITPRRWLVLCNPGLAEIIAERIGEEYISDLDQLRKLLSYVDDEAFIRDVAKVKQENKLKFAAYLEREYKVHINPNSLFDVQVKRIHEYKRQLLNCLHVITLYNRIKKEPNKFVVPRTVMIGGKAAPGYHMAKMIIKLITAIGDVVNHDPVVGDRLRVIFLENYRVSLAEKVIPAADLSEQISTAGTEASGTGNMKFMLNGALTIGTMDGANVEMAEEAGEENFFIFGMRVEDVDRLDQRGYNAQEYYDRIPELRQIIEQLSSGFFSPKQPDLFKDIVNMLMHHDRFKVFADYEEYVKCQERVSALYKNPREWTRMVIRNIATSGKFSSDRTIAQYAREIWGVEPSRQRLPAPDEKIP
The data set can be described thus: Glycogen phosphorylase assay in vitro (reverse direction, malachite green phosphate detection). The settings on record: 50 mM Hepes pH 7.2, 7.5 mM glucose, 0.5 mM glucose-1-phosphate, 1 mg/mL glycogen, 30° C. for 30 min. The format is biochemical. The text has this:
α-D-Glucose-1-phosphate (disodium salt), Glycogen, D-Glucose, Malachite Green Hydrochloride, Ammonium Molybdate tetrahydrate, BSA, HEPES and rabbit muscle phosphorylase a (P1261) were purchased from Sigma. All other reagents were analytical grade.
An assay for glycogen phosphorylase activity in the reverse direction was developed based on the method described by Engers et al., Can. J. Biochem., 1970, 48, 746-754]. Rabbit muscle glycogen phosphorylase a (Sigma) was reconstituted at a stock concentration of 100 μg/mL in 25 mM Tris/HCl. […] in a 96-well plate in a final volume of 100 μL containing 50 mM Hepes pH 7.2, 7.5 mM glucose, 0.5 mM glucose-1-phosphate and 1 mg/mL glycogen. After incubation at 30° C. for 30 min, the inorganic phosphate released from glucose-1-phosphate was measured by the addition of 150 μL of malachite green/molybdate solution prepared as follows: 5 mL of 4.2% ammonium molybdate in 4N HCl, 15 mL of 0.045% malachite green, 50 μL of Tween 20. Following a 30 min incubation at room temperature, the absorbance was measured at 620 nm. For IC50 determination, 10 μL of a serial dilution of compound (100 μM to 0.004 μM) in DMSO was added to each reaction in duplicate with the equivalent concentration of DMSO added to the control uninhibited reaction. Dose response curves were then obtained by plotting % inhibition versus log10 compound concentration. […]

With `Cl.O=C(N[C@@H](Cc1ccc(F)cc1)C(=O)N1CCC(O)CC1)c1cc2cc(Cl)ncc2[nH]1` [Example 1], the “Thermal stability (temperature below which the substance appeared to be stable)” value in data set [1] is “below 190 °C”.
Consider `O=C(N[C@@H](Cc1ccc(F)cc1)C(=O)N1CCC(O)CC1)c1cc2cc(Cl)ncc2[nH]1` [Formula (I), 5-chloro-1H-pyrrolo[2,3-c]pyridine-2-carboxylic acid [1-(S)-(4-fluorobenzyl)-2-(4-hydroxypiperidin-1-yl)-2-oxoethyl]amide], for which, in data set [2], the IC50 (in general, the concentration that inhibits the measured activity by half) is under 1 mM.
